# Reference: patent US20170027171A1, “METHOD FOR CONTROLLING PLANT DISEASES” (Nihon Nohyaku Co., Ltd., priority 2014, published 2017)
# Key:
# Type in all cases: in vivo
# [1] = tested on: Pseudocercosporella herpotrichoides; assay: Test for wheat eyespot, potted wheat, foliar spray before inoculation; details: wheat in pots, percentage of stems with lesions three weeks after inoculation
# Description: Test for Wheat Eyespot (Pseudocercosporella herpotrichoides)
# The formulation produced in Formulation Example 1 was adjusted to predetermined concentrations and these prepared agrochemical liquids were applied to wheat plants in pots at a predetermined rate with a spray gun. After air-drying, the wheat pots were spray-inoculated with a spore suspension of wheat eyespot pathogen Pseudocercosporella herpotrichoides (4.2×10^6 spores/mL). After that, the wheat pots were kept in a greenhouse, in which the conditions favored the development of the disease. Three weeks after the inoculation, the percentage of stems with lesions was determined for the evaluation of the control effect.
# [2] = tested on: Septoria tritici, KUK-1-21 Strain; assay: Test for wheat leaf blotch, potted wheat, foliar spray before inoculation
# Description: Test for Wheat Leaf Blotch (Septoria tritici, KUK-1-21 Strain):
# (§1) The formulation produced in Formulation Example 1 was adjusted to predetermined concentrations and these prepared agrochemical liquids were applied to wheat plants in pots at a rate equivalent to 1000 L/ha with a spray gun. After the agrochemical treatment, the wheat pots were kept outdoors for 1 day or 7 days, and then spray-inoculated with wheat leaf blotch pathogen Septoria tritici (1×10^6 spores/mL). After that, the wheat pots were kept in a greenhouse, in which the conditions favored the development of the disease. Three weeks after the inoculation, the lesion area index (0-10) was determined for the evaluation of the control effect.
# Septoria nodorum = assay: Test for wheat glume blotch, potted wheat, foliar spray before inoculation; details: wheat in pots, 1000 L/ha spray, number of lesions per leaf ten days after inoculation
# Description: Test for Wheat Glume Blotch (Septoria nodorum)
# as §1, with “nodorum (2.4×10^6” for “tritici (1×10^6”, “disease.” for “disease. Three weeks after the inoculation, the lesion area index (0-10) was determined for the evaluation of the control effect.”
# Ten days after the inoculation, the number of lesions per leaf was counted for the evaluation of the control effect.
smiles,measurement,setting,value
O=C1C(Cl)=C(Cl)C(=O)N1c1ccc(F)cc1 [Fluoroimide],"Control rate, Inoculated after treatment and air-drying",[1]; 125 ppm,56
same,"Control rate, Inoculated after treatment and air-drying",[1]; 250 ppm,80
same,"Control rate, Inoculated after treatment and air-drying",[1]; 500 ppm,95
same,"Control rate, Inoculated at 1 day post-treatment","[2]; 62.5 ppm, wheat in pots, 1000 L/ha spray, lesion area index three weeks after inoculation",62
same,"Control rate, Inoculated at 1 day post-treatment","[2]; 125 ppm, wheat in pots, 1000 L/ha spray, lesion area index three weeks after inoculation",84
same,"Control rate, Inoculated at 1 day post-treatment","[2]; 250 ppm, wheat in pots, 1000 L/ha spray, lesion area index three weeks after inoculation",95
same,"Control rate, Inoculated at 7 days post-treatment","[2]; 500 ppm, wheat in pots, 1000 L/ha spray, lesion area index three weeks after inoculation",65
same,Effect for controlling leaf blotch (in words),[2]; summary of the results,highly effective
same,"Control rate, Inoculated at 1 day post-treatment",Septoria nodorum; 62.5 ppm,63
same,"Control rate, Inoculated at 1 day post-treatment",Septoria nodorum; 125 ppm,90
same,"Control rate, Inoculated at 1 day post-treatment",Septoria nodorum; 250 ppm,94
same,"Control rate, Inoculated at 1 day post-treatment",Septoria nodorum; 500 ppm,96
same,"Control rate, Inoculated at 7 days post-treatment",Septoria nodorum; 500 ppm,85
